Test results from ChEMBL document CHEMBL4602691, “Selective DYRK1A Inhibitor for the Treatment of Type 1 Diabetes: Discovery of 6-Azaindole Derivative GNF2133” (J Med Chem, 2020).

Tests used:
[1] = Metabolic stability in human liver microsomes assessed as intrinsic clearance at 1 uM incubated for 30 mins by LC-MS/MS analysis; assay type: ADME, Microsome; details: 0.5 h
[2] = Metabolic stability in mouse liver microsomes assessed as intrinsic clearance at 1 uM incubated for 30 mins by LC-MS/MS analysis; assay type: ADME, Microsome; details: 0.5 h
[3] = Metabolic stability in rat liver microsomes assessed as intrinsic clearance at 1 uM incubated for 30 mins by LC-MS/MS analysis; assay type: ADME, Microsome; details: 0.5 h
[4] = Aqueous solubility of compound at pH 6.8; assay type: physicochemical; details: aqueous medium
[5] = Clast in CD-1 mouse at 30 mg/kg, po; assay type: ADME, organism-based; details: in vivo, read-out: Clast
[6] = Tmax in CD-1 mouse at 2 mg/kg, iv; assay type: ADME, organism-based; details: in vivo
[7] = Cmax in CD-1 mouse at 30 mg/kg, po; assay type: ADME, organism-based; design: dose 30 mg/kg, route oral; details: in vivo
[8] = Clast in CD-1 mouse at 2 mg/kg, iv; assay type: ADME, organism-based; details: in vivo, read-out: Clast
[9] = Half life in CD-1 mouse at 30 mg/kg, po; assay type: ADME, organism-based; details: in vivo
[10] = AUC in CD-1 mouse at 30 mg/kg, po; assay type: ADME, organism-based; details: in vivo
[11] = Volume of distribution at steady state in CD-1 mouse at 2 mg/kg, iv; assay type: ADME, organism-based; details: in vivo, read-out: Vdss
[12] = Clast in CD-1 mouse pancreas at 30 mg/kg, po; assay type: ADME, organism-based; details: in vivo, read-out: Clast
[13] = Half life in CD-1 mouse pancreas at 30 mg/kg, po; assay type: ADME, organism-based
[14] = AUC in CD-1 mouse at 2 mg/kg, iv; assay type: ADME, organism-based; details: in vivo
[15] = Tmax in CD-1 mouse at 30 mg/kg, po; assay type: ADME, organism-based; details: in vivo
[16] = Oral bioavailability in CD-1 mouse at 30 mg/kg; assay type: ADME, organism-based; details: in vivo
[17] = Cmax in CD-1 mouse pancreas at 30 mg/kg, po; assay type: ADME, organism-based; design: dose 30 mg/kg, route oral
[18] = Half life in CD-1 mouse at 2 mg/kg, iv; assay type: ADME, organism-based; details: in vivo
[19] = Cmax in CD-1 mouse at 2 mg/kg, iv; assay type: ADME, organism-based; design: dose 2 mg/kg, route intravenous; details: in vivo
[20] = Tmax in CD-1 mouse pancreas at 30 mg/kg, po; assay type: ADME, organism-based
[21] = Clearance in CD-1 mouse at 2 mg/kg, iv; assay type: ADME, organism-based; details: in vivo
[22] = AUC in CD-1 mouse pancreas at 30 mg/kg, po; assay type: ADME, organism-based

SMILES	CLH [1] [%]	CLH [2] [%]	CLH [3] [%]	also measured
CC(C)Cn1cc(-c2ccncc2)c2ccncc21	83	95	79	–
c1ccc(Cn2cc(-c3ccncc3)c3ccncc32)cc1	83	90	67	–
C[C@@H]1CN(C(=O)Nc2cc(-c3cn([C@H]4CC[C@@](C)(O)CC4)c4cnccc34)ccn2)C[C@H](C)O1	21	23	18	solubility [4]: > 175 µM
Nc1cc(-c2cn(-c3ccccc3)c3cnccc23)ccn1	87	94	86	–
CCN1CCN(C(=O)Nc2cc(-c3cn(C4CCOCC4)c4cnccc34)ccn2)CC1.Cl	–	–	–	concentration [5]: 19 nM; Tmax [6]: 1.8 min; Cmax [7]: 1680 nM; concentration [8]: 36.6 nM; half-life [9]: 3.4 h; AUC [10]: 11 µM·h; Vd [11]: 11 L/kg; concentration [12]: 1320 nM; half-life [13]: 6.6 h; AUC [14]: 3.27 µM·h; Tmax [15]: 3 h; bioavailability [16]: 22.3%; Cmax [17]: 13300 nM; half-life [18]: 6.6 h; Cmax [19]: 1980 nM; Tmax [20]: 3 h; clearance [21]: 23.5 mL/min/kg; AUC [22]: 144 µM·h
CC1(Cn2cc(-c3ccncc3)c3ccncc32)COC1	39	90	69	–
O=C(Nc1cc(-c2cn(-c3ccccc3)c3cnccc23)ccn1)C1CC1	44	76	50	–
c1ccc(-n2cc(-c3ccncc3)c3ccncc32)cc1	92	97	90	–
c1cc(-c2cn(CC3CC3)c3cnccc23)ccn1	87	97	87	–

Second part, led by results:

CLH [1] [%]	CLH [2] [%]	CLH [3] [%]	SMILES	also measured
28	30	18	CCN1CCN(C(=O)Nc2cc(-c3cn(C4CCOCC4)c4cnccc34)ccn2)CC1	solubility [4]: > 175 µM
–	91	83	c1cc(-c2cn(C3CCOCC3)c3cnccc23)ccn1	–
–	71	42	O=C(Nc1cc(-c2cn(C3CCOCC3)c3cnccc23)ccn1)NC1CC1	–
21	23	25	O=C(Nc1cc(-c2cn(C3CCOCC3)c3cnccc23)ccn1)N1CCOCC1	–
–	23	18	C[C@@H]1CN(C(=O)Nc2cc(-c3cn(C4CCOCC4)c4cnccc34)ccn2)C[C@H](C)O1	–
21	70	60	O=C(Nc1cc(-c2cn(-c3ccccc3)c3cnccc23)ccn1)NC1CC1	–
43	43	45	CC1(C)CN(C(=O)Nc2cc(-c3cn(C4CCOCC4)c4cnccc34)ccn2)C1	–
